Source: patent publication US12678430B2, “Compositions and methods for the treatment of liver disorders” (Viking Therapeutics, Inc., priority 2020, dated 2026)

Legend:
FXR receptor = target: T1, FXR receptor (Homo sapiens, UniProt Q96RI1); assay: In vitro FXR activity, PathHunter enzyme fragment complementation assay in CHO cells; format: cell-based; conditions: for EC50: CHO PathHunter cells, ten-point dose curve, chemiluminescence; for Emax: CHO, read-out: Max Response (%)
T1 construct: beta-galactosidase enzyme fragment (EFC/PathHunter); expressed in transfected cells; host or cells: Chinese Hamster Ovary (CHO) cells, stably transfected, clonally derived
T1 sequence (Q96RI1 1-486): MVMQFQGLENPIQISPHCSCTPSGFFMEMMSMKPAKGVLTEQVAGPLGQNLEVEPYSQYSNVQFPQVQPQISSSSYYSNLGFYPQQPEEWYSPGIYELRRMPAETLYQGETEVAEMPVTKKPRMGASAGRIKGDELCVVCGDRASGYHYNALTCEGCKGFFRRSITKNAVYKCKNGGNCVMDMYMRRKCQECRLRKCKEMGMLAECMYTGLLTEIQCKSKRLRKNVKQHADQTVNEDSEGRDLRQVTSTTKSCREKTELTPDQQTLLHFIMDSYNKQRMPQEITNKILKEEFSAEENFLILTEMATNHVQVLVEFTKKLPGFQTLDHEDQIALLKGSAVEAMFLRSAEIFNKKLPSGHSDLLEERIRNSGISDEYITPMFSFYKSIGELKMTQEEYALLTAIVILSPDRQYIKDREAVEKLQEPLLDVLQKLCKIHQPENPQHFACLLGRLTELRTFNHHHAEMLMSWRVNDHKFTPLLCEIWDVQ
Experimental: Cells were seeded in cell plating reagent in a total volume of 20 μL into 384-well microplates and incubated at 37° C., 5% CO2 humidified incubator for 24 or 48 hours prior to testing. FXR agonists were dissolved in DMSO (dimethyl sulfoxide). Ligands were subsequently diluted in the cell plating reagent to make up desired concentration stock solution. Ten-point dose curve serial dilutions were prepared in cell plating reagent. 5 μL of 5× sample was added to cells and incubated at 37° C. or room temperature for 3-16 hours. Final assay vehicle concentration was 1%. Chemiluminescent signals were generated through addition of 12.5 μL or 15 μL of detection reagent cocktail ([…]), followed by incubation at room temperature for 1 hour. Microplates were read for signal generation using a PerkinElmer Envision instrument to detect chemiluminescence. The percentage activity was calculated using the following formula: % Activity=100%×(mean RLU of test sample−mean RLU of vehicle control)/(mean MAX control ligand−mean RLU of vehicle control).

diet-induced NASH mice [1] = assay: Example 6: diet-induced (GAN diet) NASH mice, FXR agonists alone; format: in vivo; conditions: 10 mg/kg; for blood glucose level compared to vehicle: FIG. 2; for plasma triglyceride (TG) levels compared to vehicle: as early as seven days, FIG. 3; for total liver triglycerides: over the course of the study, FIG. 4; for relative terminal body weight compared to vehicle: study day 21, FIG. 1; for liver TG lowering compared to tropifexor: II-1 p<0.05, II-2 p<0.01
Experimental: NASH was induced in mice by feeding mice a Gubra amylin NASH (GAN) diet as described in Boland et al. World J Gastroenterol. 2019, 25(33): 4904-4920. One week prior to administration of a first dose of compounds, the mice were weighed and randomized, and their food intake was measured. Mice were randomly assigned to dosing groups, with 12 mice per group. Assigned dosages were: Compound II-1 (10 mg/kg); Compound II-2 (10 mg/kg) One group was mock treated with vehicle only as a control. Dosage of Compound II-1 and Compound II-2 were titrated over 3 days, with a dosage of 3 mg/kg administered on days 0, 1 and 2. Dosage of tropifexor was titrated over 2 days, with a dosage of 0.1 mg/kg administered on days 0 and 1. Absolute and relative body weight of the mice were recorded daily.
(§1) Fed blood glucose and fed plasma levels of alanine transaminase (ALT) aspartate transaminase (AST), triglycerides (TG), and total cholesterol (TC) were measured at days 7, 14, 21.
(§2) After 8 weeks, animals were sacrificed. Plasma enzymes (P-ALT (alanine aminotransferase) and P-AST (aspartate aminotransferase)), total plasma triglycerides, and total plasma cholesterol were measured, and terminal necropsy of each liver was carried out, determining relative liver weight as a percentage of body weight, assaying total liver biochemistry including total liver triglycerides, plasma insulin and total liver cholesterol, as well as histological evaluation of total liver hydroxyproline, and steatosis. Tissue samples were preserved for characterization using RNAseq.

diet-induced NASH mice [2] = assay: Example 7: diet-induced (GAN diet) NASH mice, Compound 2, FXR agonists and combinations; format: in vivo; conditions: for blood glucose level compared to vehicle: FIG. 6; for liver TG levels at the termination of the study: FIG. 8; for plasma triglyceride (TG) levels: as early as seven days, FIG. 7; for plasma TG levels compared to vehicle: day 21, FIG. 11; for total liver triglycerides compared to tropifexor: day 21, FIG. 12; for relative terminal body weight compared to vehicle: study day 21, FIG. 5; for plasma insulin level, significance compared to vehicle / plasma insulin levels compared to vehicle alone and to Compound 2: study day 21, FIG. 9; for plasma ALT level compared to vehicle alone / plasma ALT levels compared to tropifexor: study day 21, FIG. 10
Experimental: NASH was induced in mice by feeding mice a Gubra amylin NASH (GAN) diet as described in Boland et al. World J Gastroenterol. 2019, 25(33): 4904-4920. One week prior to administration of a first dose of compounds, the mice were weighed and randomized, and their food intake was measured. Mice were randomly assigned to dosing groups, with 12 mice per group. Assigned dosages included the following; Compound 2 (10 mg/kg); tropifexor (0.3 mg/kg); Compound 2 (10 mg/kg)+tropifexor (0.3 mg/kg); Compound II-1 (10 mg/kg); Compound 2 (10 mg/kg)+Compound II-1 (30 mg/kg); Compound II-2 (10 mg/kg); and Compound 2 (10 mg/kg)+Compound II-2 (30 mg/kg). One group was mock treated with vehicle only as a control. Dosage of Compound II-1 and Compound II-2 were titrated over 6 days, with a dosage of 3 mg/kg administered on days 0, 1 and 2 and a dosage of 10 mg/kg administered on days 3, 4, and 5. Absolute and relative body weight of the mice were recorded daily.
as §1
as §2, with “3” for “8”

[3] = % Activity relative to MAX control ligand

Max Response (%) (FXR receptor; [3]) | Structure (SMILES) | EC50 (FXR receptor) [µM] | blood glucose level compared to vehicle (diet-induced NASH mice [1]) | plasma triglyceride (TG) levels compared to vehicle (diet-induced NASH mice [1]) | total liver triglycerides (diet-induced NASH mice [1]) | relative terminal body weight compared to vehicle (diet-induced NASH mice [1]) | liver TG lowering compared to tropifexor (diet-induced NASH mice [1]) | plasma TG lowering compared to tropifexor (diet-induced NASH mice [1]; p<0.05) | blood glucose level compared to vehicle (diet-induced NASH mice [2]) | liver TG levels at the termination of the study (diet-induced NASH mice [2]) | plasma triglyceride (TG) levels (diet-induced NASH mice [2]) | plasma TG levels compared to vehicle (diet-induced NASH mice [2]) | total liver triglycerides compared to tropifexor (diet-induced NASH mice [2]) | relative terminal body weight compared to vehicle (diet-induced NASH mice [2]) | plasma insulin level, significance compared to vehicle (diet-induced NASH mice [2]) | plasma insulin levels compared to vehicle alone and to Compound 2 (diet-induced NASH mice [2]) | plasma ALT level compared to vehicle alone (diet-induced NASH mice [2]) | plasma ALT levels compared to tropifexor (diet-induced NASH mice [2]) | Emax (FXR receptor; [3]) [%]
90 | CP(=O)(O)c1cc(F)c2nc(N3[C@@H]4CC[C@H]3CC(OCc3c(-c5ccccc5OC(F)(F)F)noc3C3CC3)C4)sc2c1 (stereo partly drawn) [Compound II-2] | 3.08 | lower blood glucose level | significantly reduced | similarly decreased | lower relative terminal body weight | greater efficacy in lowering liver TG levels | greater efficacy in lowering plasma TG levels | lower blood glucose level | lowered liver TG levels | significantly reduced | significant reduction of plasma TG levels | reduced total liver triglycerides than tropifexor | lower relative terminal body weight | statistically significant reduction of plasma insulin level | lower insulin levels | lower plasma ALT level | lower plasma ALT levels | –
– | Oc1cc(-c2cc(F)c3nc(N4[C@@H]5CC[C@H]4CC(OCc4c(-c6ccccc6OC(F)(F)F)noc4C4CC4)C5)sc3c2)on1 (stereo partly drawn) [Compound II-3, 5-(2-((1R,5S)-3-((5-cyclopropyl-3-(2-(trifluoromethoxy)phenyl)isoxazol-4-yl)methoxy)-8-azabicyclo[3.2.1]octan-8-yl)-4-fluorobenzo[d]thiazol-6-yl)isoxazol-3-ol] | 0.0246 | – | – | – | – | – | – | – | – | – | significant reduction of plasma TG levels | reduced total liver triglycerides than tropifexor | – | statistically significant reduction of plasma insulin level | lower insulin levels | lower plasma ALT level | lower plasma ALT levels | 151
– | Oc1cc(-c2cc(F)c3nc(N4[C@@H]5CC[C@H]4CC(OCc4c(-c6ccccc6OC(F)(F)F)noc4C4CC4)C5)sc3c2)no1 (stereo partly drawn) [Compound II-4, 3-(2-((1R,5S)-3-((5-cyclopropyl-3-(2-(trifluoromethoxy)phenyl)isoxazol-4-yl)methoxy)-8-azabicyclo[3.2.1]octan-8-yl)-4-fluorobenzo[d]thiazol-6-yl)isoxazol-5-ol] | 0.0811 | – | – | – | – | – | – | – | – | – | significant reduction of plasma TG levels | reduced total liver triglycerides than tropifexor | – | – | lower insulin levels | lower plasma ALT level | lower plasma ALT levels | 159
– | O=P(O)(O)c1cc(F)c2nc(N3[C@@H]4CC[C@H]3CC(OCc3c(-c5ccccc5OC(F)(F)F)noc3C3CC3)C4)sc2c1 (stereo partly drawn) [Compound II-1, (2-((1R,5S)-3-((5-cyclopropyl-3-(2-(trifluoromethoxy)phenyl)isoxazol-4-yl)methoxy)-8-azabicyclo[3.2.1]octan-8-yl)-4-fluorobenzo[d]thiazol-6-yl)phosphonic acid] | 2.86 | lower blood glucose level | significantly reduced | similarly decreased | lower relative terminal body weight | greater efficacy in lowering liver TG levels | – | lower blood glucose level | lowered liver TG levels | significantly reduced | significant reduction of plasma TG levels | reduced total liver triglycerides than tropifexor | lower relative terminal body weight | statistically significant reduction of plasma insulin level | lower insulin levels | lower plasma ALT level | lower plasma ALT levels | 52
– | Cc1cc(OCP2(=O)OCC[C@@H](c3cccc(Cl)c3)O2)cc(C)c1Cc1ccc(O)c(C(C)C)c1 (stereo partly drawn) [Compound 2] | – | – | – | – | – | – | – | lower blood glucose level | lowered liver TG levels | significantly reduced | – | – | lower relative terminal body weight | – | – | – | – | –
